{"source": "the kinase profiling compilation of Christmann-Franck et al. (2016)", "assay_in_all_cases": "radiometric filter-binding kinase assay, Kinaseprofiler", "key": {"[1]": {"biological_target": "BRSK1 (human) (UniProt Q8TDC3)", "details": "ATP 200 µM"}, "[2]": {"biological_target": "CAMK4 (human) (UniProt Q16566)", "details": "ATP 10 µM"}, "[3]": {"biological_target": "CDK1 CCNB1 (human) (UniProt P06493+P14635)", "details": "ATP 45 µM"}, "[4]": {"biological_target": "CDK6 CCND3 (human) (UniProt P30281+Q00534)", "details": "ATP 200 µM"}, "[5]": {"biological_target": "CDK7 CCNH MNAT1 (human) (UniProt P50613+P51948+P51946)", "details": "ATP 90 µM"}, "[6]": {"biological_target": "CSF1R (human) (UniProt P07333)", "sequence (P07333 whole entry, looked up)": "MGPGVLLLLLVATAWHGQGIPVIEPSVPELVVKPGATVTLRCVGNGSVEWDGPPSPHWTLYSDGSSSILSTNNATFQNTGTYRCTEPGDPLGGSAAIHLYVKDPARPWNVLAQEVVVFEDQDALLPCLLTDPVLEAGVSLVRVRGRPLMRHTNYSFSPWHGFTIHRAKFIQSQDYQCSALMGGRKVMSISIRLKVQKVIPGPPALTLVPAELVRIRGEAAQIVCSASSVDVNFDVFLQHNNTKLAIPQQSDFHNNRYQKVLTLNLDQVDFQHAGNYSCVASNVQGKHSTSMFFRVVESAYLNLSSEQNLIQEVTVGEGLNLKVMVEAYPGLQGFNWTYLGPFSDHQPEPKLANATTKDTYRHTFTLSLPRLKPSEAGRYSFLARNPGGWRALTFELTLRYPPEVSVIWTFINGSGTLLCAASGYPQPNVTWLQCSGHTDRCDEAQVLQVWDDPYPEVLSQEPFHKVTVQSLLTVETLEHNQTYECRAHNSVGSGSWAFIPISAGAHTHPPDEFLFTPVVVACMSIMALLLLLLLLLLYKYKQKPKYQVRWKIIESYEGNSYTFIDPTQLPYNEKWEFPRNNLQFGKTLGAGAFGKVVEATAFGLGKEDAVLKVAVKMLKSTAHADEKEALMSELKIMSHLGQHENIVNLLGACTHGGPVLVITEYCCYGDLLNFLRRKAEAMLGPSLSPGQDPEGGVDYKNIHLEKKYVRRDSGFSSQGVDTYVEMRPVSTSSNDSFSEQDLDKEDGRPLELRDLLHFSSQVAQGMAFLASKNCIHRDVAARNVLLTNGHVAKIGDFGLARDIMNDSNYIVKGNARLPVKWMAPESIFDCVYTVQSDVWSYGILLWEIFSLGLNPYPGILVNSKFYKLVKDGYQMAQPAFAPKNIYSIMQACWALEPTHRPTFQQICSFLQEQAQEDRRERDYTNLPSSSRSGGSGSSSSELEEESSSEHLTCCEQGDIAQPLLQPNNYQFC", "details": "ATP 200 µM"}, "[7]": {"system": "CSNK1D (rat)", "details": "accession and sequence are those of the human protein"}, "[8]": {"biological_target": "CSNK1G2 (human) (UniProt P78368)", "details": "ATP 10 µM"}, "[9]": {"biological_target": "DAPK1 (human) (UniProt P53355)", "sequence (P53355 whole entry, looked up)": "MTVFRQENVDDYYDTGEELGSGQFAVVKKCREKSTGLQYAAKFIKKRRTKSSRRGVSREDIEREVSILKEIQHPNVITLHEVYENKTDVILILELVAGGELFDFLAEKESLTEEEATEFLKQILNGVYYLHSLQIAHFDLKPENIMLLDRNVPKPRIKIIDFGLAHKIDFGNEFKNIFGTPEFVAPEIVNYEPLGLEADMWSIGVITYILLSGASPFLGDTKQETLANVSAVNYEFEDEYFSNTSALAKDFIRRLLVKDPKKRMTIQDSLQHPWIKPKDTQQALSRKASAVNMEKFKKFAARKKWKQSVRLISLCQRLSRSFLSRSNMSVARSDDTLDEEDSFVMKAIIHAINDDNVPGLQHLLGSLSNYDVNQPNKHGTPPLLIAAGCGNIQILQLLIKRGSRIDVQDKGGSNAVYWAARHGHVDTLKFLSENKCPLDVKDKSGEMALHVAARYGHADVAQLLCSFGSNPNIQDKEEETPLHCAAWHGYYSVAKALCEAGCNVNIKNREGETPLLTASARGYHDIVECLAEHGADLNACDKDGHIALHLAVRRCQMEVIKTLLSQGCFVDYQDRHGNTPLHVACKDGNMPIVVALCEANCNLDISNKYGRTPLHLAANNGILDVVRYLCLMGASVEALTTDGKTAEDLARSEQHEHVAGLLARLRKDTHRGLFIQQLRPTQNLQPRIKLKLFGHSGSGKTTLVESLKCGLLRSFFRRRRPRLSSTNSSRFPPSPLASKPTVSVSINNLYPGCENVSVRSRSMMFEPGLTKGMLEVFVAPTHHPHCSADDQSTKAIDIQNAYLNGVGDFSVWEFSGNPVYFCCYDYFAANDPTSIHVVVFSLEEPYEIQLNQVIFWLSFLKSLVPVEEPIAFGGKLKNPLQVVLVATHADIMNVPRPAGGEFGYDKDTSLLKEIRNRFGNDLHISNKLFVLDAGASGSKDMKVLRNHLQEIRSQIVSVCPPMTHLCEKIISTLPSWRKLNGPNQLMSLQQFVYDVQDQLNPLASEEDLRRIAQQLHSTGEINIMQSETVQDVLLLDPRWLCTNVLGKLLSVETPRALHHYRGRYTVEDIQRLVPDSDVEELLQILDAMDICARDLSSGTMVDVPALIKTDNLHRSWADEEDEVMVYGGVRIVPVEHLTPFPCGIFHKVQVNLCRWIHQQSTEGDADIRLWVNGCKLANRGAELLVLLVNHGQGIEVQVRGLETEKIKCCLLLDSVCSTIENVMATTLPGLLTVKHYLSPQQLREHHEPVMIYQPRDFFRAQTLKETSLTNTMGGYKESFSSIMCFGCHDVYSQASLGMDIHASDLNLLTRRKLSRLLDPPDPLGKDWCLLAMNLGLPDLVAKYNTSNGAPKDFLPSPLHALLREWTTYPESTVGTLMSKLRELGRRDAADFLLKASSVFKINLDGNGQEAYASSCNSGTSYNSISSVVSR", "details": "ATP 70 µM"}, "[10]": {"biological_target": "DYRK2 (human) (UniProt Q92630)", "sequence (Q92630 whole entry, looked up)": "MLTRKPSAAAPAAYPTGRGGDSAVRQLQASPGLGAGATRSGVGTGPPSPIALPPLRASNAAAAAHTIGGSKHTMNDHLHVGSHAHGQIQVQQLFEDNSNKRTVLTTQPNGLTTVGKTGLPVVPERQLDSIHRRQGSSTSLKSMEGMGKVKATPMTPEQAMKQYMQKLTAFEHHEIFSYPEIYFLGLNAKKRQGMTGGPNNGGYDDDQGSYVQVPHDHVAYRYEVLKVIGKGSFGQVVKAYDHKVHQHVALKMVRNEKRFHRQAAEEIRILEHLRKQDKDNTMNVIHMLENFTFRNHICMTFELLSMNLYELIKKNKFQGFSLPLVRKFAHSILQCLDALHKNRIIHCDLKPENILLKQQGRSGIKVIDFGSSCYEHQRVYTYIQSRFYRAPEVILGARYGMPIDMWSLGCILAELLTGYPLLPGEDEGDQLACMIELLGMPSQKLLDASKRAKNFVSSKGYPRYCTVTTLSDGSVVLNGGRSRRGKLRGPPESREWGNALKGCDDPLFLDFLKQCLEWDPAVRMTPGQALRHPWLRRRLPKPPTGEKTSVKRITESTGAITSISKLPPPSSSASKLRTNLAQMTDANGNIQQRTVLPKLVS", "details": "ATP 15 µM"}, "[11]": {"biological_target": "EPHA2 (human) (UniProt P29317)", "details": "ATP 155 µM"}, "[12]": {"biological_target": "EPHA3 (human) (UniProt P29320)", "details": "ATP 120 µM"}, "[13]": {"biological_target": "FGFR4 (human) (UniProt P22455)", "details": "ATP 155 µM"}, "[14]": {"biological_target": "HIPK3 (human) (UniProt Q9H422)", "details": "ATP 15 µM"}, "[15]": {"biological_target": "IGF1R (human) (UniProt P08069)", "sequence (P08069 whole entry, looked up)": "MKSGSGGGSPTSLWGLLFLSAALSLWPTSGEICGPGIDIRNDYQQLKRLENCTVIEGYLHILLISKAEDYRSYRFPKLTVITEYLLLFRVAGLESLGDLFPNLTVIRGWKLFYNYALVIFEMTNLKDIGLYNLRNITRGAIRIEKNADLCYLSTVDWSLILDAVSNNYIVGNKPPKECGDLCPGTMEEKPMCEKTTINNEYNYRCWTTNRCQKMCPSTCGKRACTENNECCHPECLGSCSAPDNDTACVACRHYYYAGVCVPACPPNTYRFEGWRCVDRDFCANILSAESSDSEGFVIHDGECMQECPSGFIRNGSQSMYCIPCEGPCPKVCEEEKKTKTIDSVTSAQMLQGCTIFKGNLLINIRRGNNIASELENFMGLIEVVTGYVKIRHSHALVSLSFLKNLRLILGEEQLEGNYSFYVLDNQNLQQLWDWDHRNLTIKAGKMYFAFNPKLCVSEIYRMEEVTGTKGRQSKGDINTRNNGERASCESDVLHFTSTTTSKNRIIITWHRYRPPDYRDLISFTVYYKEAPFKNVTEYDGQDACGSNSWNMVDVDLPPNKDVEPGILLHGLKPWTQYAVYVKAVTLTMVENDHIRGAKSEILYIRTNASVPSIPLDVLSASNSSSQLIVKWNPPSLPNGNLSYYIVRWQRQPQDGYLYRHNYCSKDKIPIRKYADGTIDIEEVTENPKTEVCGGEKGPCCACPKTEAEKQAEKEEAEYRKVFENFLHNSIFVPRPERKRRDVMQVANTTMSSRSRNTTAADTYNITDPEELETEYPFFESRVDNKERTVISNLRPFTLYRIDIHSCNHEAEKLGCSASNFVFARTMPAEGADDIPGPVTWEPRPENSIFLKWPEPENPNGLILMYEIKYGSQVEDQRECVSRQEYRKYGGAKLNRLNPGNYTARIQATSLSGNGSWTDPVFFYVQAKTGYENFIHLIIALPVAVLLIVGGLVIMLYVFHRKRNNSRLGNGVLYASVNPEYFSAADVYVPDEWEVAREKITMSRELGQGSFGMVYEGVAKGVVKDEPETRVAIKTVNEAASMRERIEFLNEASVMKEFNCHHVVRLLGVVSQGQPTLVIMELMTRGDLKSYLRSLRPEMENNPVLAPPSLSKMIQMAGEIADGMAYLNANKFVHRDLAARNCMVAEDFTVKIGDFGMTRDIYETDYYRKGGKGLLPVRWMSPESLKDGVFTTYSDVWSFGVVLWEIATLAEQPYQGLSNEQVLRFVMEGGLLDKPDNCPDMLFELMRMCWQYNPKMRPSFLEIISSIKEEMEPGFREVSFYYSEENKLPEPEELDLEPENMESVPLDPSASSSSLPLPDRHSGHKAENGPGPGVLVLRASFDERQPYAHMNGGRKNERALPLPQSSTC"}, "[16]": {"system": "IRAK4 (human), Q9NWZ3 [A81V]", "details": "ATP 200 µM"}, "[17]": {"biological_target": "LCK (human) (UniProt P06239)", "sequence (P06239 whole entry, looked up)": "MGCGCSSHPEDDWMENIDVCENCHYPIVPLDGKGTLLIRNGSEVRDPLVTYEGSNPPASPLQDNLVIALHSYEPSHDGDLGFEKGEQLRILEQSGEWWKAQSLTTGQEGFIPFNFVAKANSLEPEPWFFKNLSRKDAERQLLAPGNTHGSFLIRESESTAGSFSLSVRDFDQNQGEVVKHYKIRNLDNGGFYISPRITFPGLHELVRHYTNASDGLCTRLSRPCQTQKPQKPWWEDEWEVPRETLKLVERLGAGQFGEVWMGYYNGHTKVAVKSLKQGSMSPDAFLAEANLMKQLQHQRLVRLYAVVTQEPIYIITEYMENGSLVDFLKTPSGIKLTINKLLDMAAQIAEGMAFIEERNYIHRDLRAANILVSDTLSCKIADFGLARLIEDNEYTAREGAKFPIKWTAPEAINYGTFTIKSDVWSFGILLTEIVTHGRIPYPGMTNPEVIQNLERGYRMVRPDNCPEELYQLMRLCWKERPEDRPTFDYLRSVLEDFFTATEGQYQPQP", "details": "ATP 90 µM"}, "[18]": {"biological_target": "MAP2K6 (human) (UniProt P52564)", "details": "ATP 10 µM"}, "[19]": {"biological_target": "MAP2K7 (human) (UniProt O14733)", "details": "ATP 10 µM"}, "[20]": {"biological_target": "MARK2 (human) (UniProt Q7KZI7)", "details": "ATP 15 µM"}, "[21]": {"biological_target": "NEK11 (human) (UniProt Q8NG66)", "details": "ATP 200 µM"}, "[22]": {"biological_target": "NTRK2 (human) (UniProt Q16620)", "details": "ATP 90 µM"}, "[23]": {"biological_target": "PAK3 (human) (UniProt O75914)", "details": "ATP 120 µM"}, "[24]": {"biological_target": "PRKCB2 (human) (UniProt P05771)", "details": "ATP 10 µM"}, "[25]": {"biological_target": "PTK2 (human) (UniProt Q05397)", "details": "ATP 70 µM"}, "[26]": {"biological_target": "RIPK2 (human) (UniProt O43353)", "details": "ATP 120 µM"}, "[27]": {"biological_target": "RPS6KA5 KD1 KD2 (human) (UniProt O75582)", "details": "ATP 90 µM"}, "[28]": {"biological_target": "SGK3 (human) (UniProt Q96BR1)", "details": "ATP 155 µM"}, "[29]": {"biological_target": "STK33 (human) (UniProt Q9BYT3)", "details": "ATP 155 µM"}, "[30]": {"biological_target": "TAOK2 (human) (UniProt Q9UL54)", "details": "ATP 15 µM"}, "[31]": {"biological_target": "ULK3 (human) (UniProt Q6PHR2)", "details": "ATP 10 µM"}, "[32]": {"biological_target": "VRK2 (human) (UniProt Q86Y07)", "details": "ATP 70 µM"}}, "note": "Values joined by “and” are separate entries in the source; they are usually repeats but may differ in a detail not shown here. Equal values may be shown once.", "data": [{"smiles": "O=C1Nc2ccccc2/C1=C1\\Nc2ccccc2\\C1=N/O", "values": [{"measurement": "residual activity", "setting": "[1]; compound 1.0 µM", "result": 13, "unit": "%"}, {"measurement": "residual activity", "setting": "[1]; compound 10.0 µM", "result": 12, "unit": "%"}, {"measurement": "residual activity", "setting": "[2]; compound 1.0 µM", "result": 66, "unit": "%"}, {"measurement": "residual activity", "setting": "[2]; compound 10.0 µM", "result": 10, "unit": "%"}, {"measurement": "residual activity", "setting": "[3]; compound 1.0 µM", "result": 35, "unit": "%"}, {"measurement": "residual activity", "setting": "[3]; compound 10.0 µM", "result": 19, "unit": "%"}, {"measurement": "residual activity", "setting": "[4]; compound 1.0 µM", "result": 16, "unit": "%"}, {"measurement": "residual activity", "setting": "[4]; compound 10.0 µM", "result": 5, "unit": "%"}, {"measurement": "residual activity", "setting": "[5]; compound 1.0 µM", "result": 42, "unit": "%"}, {"measurement": "residual activity", "setting": "[5]; compound 10.0 µM", "result": 16, "unit": "%"}, {"measurement": "residual activity", "setting": "[6]; compound 1.0 µM", "result": 15, "unit": "%"}, {"measurement": "residual activity", "setting": "[6]; compound 10.0 µM", "result": 8, "unit": "%"}, {"measurement": "residual activity", "setting": "[7]; compound 1.0 µM", "result": 14, "unit": "%"}, {"measurement": "residual activity", "setting": "[7]; compound 10.0 µM", "result": 4, "unit": "%"}, {"measurement": "residual activity", "setting": "[8]; compound 1.0 µM", "result": 64, "unit": "%"}, {"measurement": "residual activity", "setting": "[8]; compound 10.0 µM", "result": 20, "unit": "%"}, {"measurement": "residual activity", "setting": "[9]; compound 1.0 µM", "result": 91, "unit": "%"}, {"measurement": "residual activity", "setting": "[9]; compound 10.0 µM", "result": 67, "unit": "%"}, {"measurement": "residual activity", "setting": "[10]; compound 1.0 µM", "result": 79, "unit": "%"}, {"measurement": "residual activity", "setting": "[10]; compound 10.0 µM", "result": 20, "unit": "%"}, {"measurement": "residual activity", "setting": "[11]; compound 1.0 µM", "result": 61, "unit": "%"}, {"measurement": "residual activity", "setting": "[11]; compound 10.0 µM", "result": 16, "unit": "%"}, {"measurement": "residual activity", "setting": "[12]; compound 1.0 µM", "result": 58, "unit": "%"}, {"measurement": "residual activity", "setting": "[12]; compound 10.0 µM", "result": 9, "unit": "%"}, {"measurement": "residual activity", "setting": "[13]; compound 1.0 µM", "result": 100, "unit": "%"}, {"measurement": "residual activity", "setting": "[13]; compound 10.0 µM", "result": 45, "unit": "%"}, {"measurement": "residual activity", "setting": "[14]; compound 1.0 µM", "result": 88, "unit": "%"}, {"measurement": "residual activity", "setting": "[14]; compound 10.0 µM", "result": 19, "unit": "%"}, {"measurement": "residual activity", "setting": "[15]; compound 1.0 µM, ATP 45 µM", "result": 40, "unit": "%"}, {"measurement": "residual activity", "setting": "[15]; compound 1.0 µM, ATP 200 µM", "result": 37, "unit": "%"}, {"measurement": "residual activity", "setting": "[15]; compound 10.0 µM, ATP 45 µM", "result": 20, "unit": "%"}, {"measurement": "residual activity", "setting": "[15]; compound 10.0 µM, ATP 200 µM", "result": 26, "unit": "%"}, {"measurement": "residual activity", "setting": "[16]; compound 1.0 µM", "result": 41, "unit": "%"}, {"measurement": "residual activity", "setting": "[16]; compound 10.0 µM", "result": 6, "unit": "%"}, {"measurement": "residual activity", "setting": "[17]; compound 1.0 µM", "result": "13% and 22%"}, {"measurement": "residual activity", "setting": "[17]; compound 10.0 µM", "result": "6% and 17%"}, {"measurement": "residual activity", "setting": "[18]; compound 1.0 µM", "result": 63, "unit": "%"}, {"measurement": "residual activity", "setting": "[18]; compound 10.0 µM", "result": 40, "unit": "%"}, {"measurement": "residual activity", "setting": "[19]; compound 1.0 µM", "result": 52, "unit": "%"}, {"measurement": "residual activity", "setting": "[19]; compound 10.0 µM", "result": 7, "unit": "%"}, {"measurement": "residual activity", "setting": "[20]; compound 1.0 µM", "result": 48, "unit": "%"}, {"measurement": "residual activity", "setting": "[20]; compound 10.0 µM", "result": 14, "unit": "%"}, {"measurement": "residual activity", "setting": "[21]; compound 1.0 µM", "result": 70, "unit": "%"}, {"measurement": "residual activity", "setting": "[21]; compound 10.0 µM", "result": 18, "unit": "%"}, {"measurement": "residual activity", "setting": "[22]; compound 1.0 µM", "result": 0, "unit": "%"}, {"measurement": "residual activity", "setting": "[22]; compound 10.0 µM", "result": 0, "unit": "%"}, {"measurement": "residual activity", "setting": "[23]; compound 1.0 µM", "result": 88, "unit": "%"}, {"measurement": "residual activity", "setting": "[23]; compound 10.0 µM", "result": 57, "unit": "%"}, {"measurement": "residual activity", "setting": "[24]; compound 1.0 µM", "result": 95, "unit": "%"}, {"measurement": "residual activity", "setting": "[24]; compound 10.0 µM", "result": 102, "unit": "%"}, {"measurement": "residual activity", "setting": "[25]; compound 1.0 µM", "result": 39, "unit": "%"}, {"measurement": "residual activity", "setting": "[25]; compound 10.0 µM", "result": 2, "unit": "%"}, {"measurement": "residual activity", "setting": "[26]; compound 1.0 µM", "result": 60, "unit": "%"}, {"measurement": "residual activity", "setting": "[26]; compound 10.0 µM", "result": 27, "unit": "%"}, {"measurement": "residual activity", "setting": "[27]; compound 1.0 µM", "result": 61, "unit": "%"}, {"measurement": "residual activity", "setting": "[27]; compound 10.0 µM", "result": 21, "unit": "%"}, {"measurement": "residual activity", "setting": "[28]; compound 1.0 µM", "result": 89, "unit": "%"}, {"measurement": "residual activity", "setting": "[28]; compound 10.0 µM", "result": 56, "unit": "%"}, {"measurement": "residual activity", "setting": "[29]; compound 1.0 µM", "result": 43, "unit": "%"}, {"measurement": "residual activity", "setting": "[29]; compound 10.0 µM", "result": 8, "unit": "%"}, {"measurement": "residual activity", "setting": "[30]; compound 1.0 µM", "result": 75, "unit": "%"}, {"measurement": "residual activity", "setting": "[30]; compound 10.0 µM", "result": 26, "unit": "%"}, {"measurement": "residual activity", "setting": "[31]; compound 1.0 µM", "result": 55, "unit": "%"}, {"measurement": "residual activity", "setting": "[31]; compound 10.0 µM", "result": 12, "unit": "%"}, {"measurement": "residual activity", "setting": "[32]; compound 1.0 µM", "result": 71, "unit": "%"}, {"measurement": "residual activity", "setting": "[32]; compound 10.0 µM", "result": 28, "unit": "%"}]}]}
